# Experimental data reported in US20100216703A1, “Inhibitors of PDE4 and Methods of Use” (THE REGENTS OF THE UNIVERSITY OF CALIFORNIA, priority 2006, published 2010).
# Entries after “also recorded” stand apart in the source; their conditions may differ.
# B1: endogenous PDE4A5 (PDE4A, 109 kD) of NIH3T3p75NTR cells (protein)
# chain: MEPPAAPSERSLSLSLPGPREGQATLKPPPQHLWRQPRTPIRIQQRGYSDSAERSEPERSPHRPIERADAVDTGDRPGLRTTRMSWPSSFHGTGTGGGSSRRLEAENGPTPSPGRSPLDSQASPGLMLHAGAATSQRRESFLYRSDSDYDMSPKTMSRNSSVASEAHGEDLIVTPFAQVLASLRNVRSNFSLLTNVPIPSNKRSPLGGPPSVCKATLSEETCQQLARETLEELDWCLEQLETMQTYRSVSEMASHKFKRMLNRELTHLSEMSRSGNQVSEYISNTFLDKQHEVEIPSPTPRQRPFQQPPPAAVQQAQPMSQITGLKKLVHTGSLNINVPRFGVKTDQEDLLAQELENLSKWGLNIFCVSEYAGGRSLSCIMYTIFQERDLLKKFHIPVDTMMTYMLTLEDHYHADVAYHNSLHAADVLQSTHVLLATPALDAVFTDLEILAALFAAAIHDVDHPGVSNQFLINTNSELALMYNDESVLENHHLAVGFKLLQEENCDIFQNLSKRQRQSLRKMVIDMVLATDMSKHMTLLADLKTMVETKKVTSSGVLLLDNYSDRIQVLRNMVHCADLSNPTKPLELYRQWTDRIMAEFFQQGDRERERGMEISPMCDKHTASVEKSQVGFIDYIVHPLWETWADLVHPDAQDILDTLEDNRDWYHSAIRQSPSPTLEEEPGVLSDPALPDKFQFELTLEEEDEEDSLEVPGLPCTEETLLAPHDTRAQAMEQSKVKGQSPAVVEVAESLKQETASAHGAPEESAEAVGHSFSLETSILPDLRTLSPSEEAQGLLGLPSMAAEVEAPRDHLAAMRACSACSGTSGDNSAVISAPGRWGSGGDPA
# B2: BDNF: Brainderived neurotrophic factor (protein, UniProt P23560 19-247, looked up)
# Neurotrophic factor BDNF …: APMKEANIRGQGGLAYPGVRTHGTLESVNGPKAGSRGLTSLADTFEHVIEELLDEDQKVRPNEENNKDADLYTSRVMLSSQVPLEPPLLFLLEEYKNYLDAANMSMRVRRHSDPARRGELSVCDSISEWVTAADKKTAVDMSGGTVTVLEKVPVSKGQLKQYFYETKCNPMGYTKEGCRGIDKRHWNSQCRTTQSYVRALTMDSKKRIGWRFIRIDTSCVCTLTIKRGR
# Assays:
# [1] = test system: NIH3T3 cells; assay: Fibrin degradation assay on 3D fibrin gel; format: cell-based
# Description: (§1) Coating with fibrin was prepared as described previously (Lansink et al., 1998). To quantitate fibrin degradation, the supernatant was aspirated and the remaining gel was weighed using an analytical balance. Decrease of gel weight corresponded to increased fibrin gel degradation.
# [2] = test system: NIH3T3p75NTR cells; assay: Competitive binding cAMP ELISA; format: cell-based; details: for intracellular cAMP levels in NIH3T3p75NTR cells: 16 h, PTX 100 ng/ml, IBMX 500 μM, PDE1 inh. 18.7 μM, EHNA 80 μM, trequinsin 100 nM, rolipram 10 μM, PDE5 inh. 23 μM
# Description: […] fibroblasts or 500,000 SCs were lysed in 0.1 N HCl solution and cAMP was measured using a competitive binding cAMP ELISA (Assay Designs). Cells were treated with 100 ng/ml PTX for 16 h. […] Cells were treated with forskolin in the presence of the inhibitors for 1 h. […] For the qualitative and quantitative PKA assay (Promega), cells were treated with 10 μM forskolin for 30 min, lysed in 1% NP-40 buffer with 150 mM NaCl, 50 mM Tris, and 1 mM EGTA, and protein concentration was determined using the Bradford Assay (Bio-Rad Laboratories). 1 μg was loaded into the PKA assay reaction mix according to the manufacturer's protocol (Promega).
# [3] = test system: NIH3T3p75NTR cells; assay: Fibrin degradation assay on 3D fibrin gel; format: cell-based; details: 2 mM db-cAMP
# Description: (§2) Quantification of tPA and uPA activity in SC and fibroblast in lysates and supernatants was performed according to the directions of the activity assay kits from American Diagnostica and Chemicon, respectively. To elevate cAMP cells were treated either with 2 mM db-cAMP (Sigma-Aldrich) or with 10 μM forskolin (Sigma-Aldrich) for 16 h. To block PKA activity, cells were treated with 200 nM KT5720 (Calbiochem).
# as §1
# [4] = biological target: T1, tPA (Mus musculus, UniProt P11214); assay: In situ zymography of crushed sciatic nerve; format: biochemical; details: injured sciatic nerve of p75NTR−/− mice, in the presence of plasminogen
# T1 construct: from tissue; host or cells: crushed sciatic nerve of p75NTR-/- mice (C57Bl/6 background)
# Description: In situ zymographies were performed as described previously (Akassoglou et al., 2000). Quantification of in situ zymographies was performed by measuring the area of the lytic zone surrounding each nerve, and dividing that value by the area of the nerve. Images were collected after 8 h of incubation for the sciatic nerve and 4 h of incubation for the lung. For cell zymographies, cultures were washed four times with PBS/BSA and overlaid with 200 μl of Dulbecco's […] medium containing 1% LMP agarose, 2.5% boiled nonfat milk, and 25 μg/ml human plasminogen. The overlay was allowed to harden, and plates were incubated in a cell culture incubator at 37° C. Pictures of lytic zones were taken using an inverted microscope under dark field (Carl Zeiss Microlmaging, Inc.).
# [5] = test system: NIH3T3 cells; assay: Quantification of tPA activity; format: cell-based; details: 10 μM forskolin 16 h; 200 nM KT5720; IBMX
# Description: as §2
# [6] = test system: NIH3T3p75NTR cells; assay: Quantification of tPA activity; format: cell-based; details: 10 μM forskolin 16 h; 200 nM KT5720; IBMX; rolipram
# Description: as §2
# [7] = test system: NIH3T3 cells; assay: RT-PCR / real-time PCR of tPA and PAI-1 RNA; format: cell-based
# Description: RT-PCR was performed as described previously (Akassoglou et al., 2002). Primers for tPA, uPA, and PAI-1 genes were used as described previously (Yamamoto and Loskutoff, 1996). Real-time PCR was performed using the Opticon DNA Engine 2 (MJ Research) and the Quantitect SYBR Green PCR kit (QIAGEN). Results were analyzed with Opticon 2 software using the comparative Ct method as described previously (Livak and Schmittgen, 2001). Data were expressed as ΔΔCt for the tPA gene normalized against GAPDH.
# [8] = test system: wt and p75NTR−/− SCs; assay: Quantification of tPA activity in primary Schwann cells; format: cell-based, mouse; details: 10 μM forskolin, 100 ng/ml NGF, 50 ng/ml BDNF, 16 h
# Description: as §2
# Murine SCs were isolated as described previously (Syroid et al., 2000). NIH3T3 or HEK293 cells were cotransfected either with p75NTR FL, ICD or deletion constructs, and PDE4A5 cDNAs using Lipofectamine 2000 (Invitrogen) as described in the Results section. CGNs were isolated from P10 animals (Yamashita and Tohyama, 2003). CGNs were lysed immediately for co-IP, without plating. siRNA directed against p75NTR (Dharmacon; SMART Pool reagent, Cat. M-080041-00; Cat. M-009340) was transfected into SCs and NIH3T3p75NTR cells using Dharmafect (Dharmacon).
# [9] = biological target: p75 neurotrophin receptor (p75NTR), stably expressed in NIH3T3p75NTR cells
# T1 sequence (P11214 33-559): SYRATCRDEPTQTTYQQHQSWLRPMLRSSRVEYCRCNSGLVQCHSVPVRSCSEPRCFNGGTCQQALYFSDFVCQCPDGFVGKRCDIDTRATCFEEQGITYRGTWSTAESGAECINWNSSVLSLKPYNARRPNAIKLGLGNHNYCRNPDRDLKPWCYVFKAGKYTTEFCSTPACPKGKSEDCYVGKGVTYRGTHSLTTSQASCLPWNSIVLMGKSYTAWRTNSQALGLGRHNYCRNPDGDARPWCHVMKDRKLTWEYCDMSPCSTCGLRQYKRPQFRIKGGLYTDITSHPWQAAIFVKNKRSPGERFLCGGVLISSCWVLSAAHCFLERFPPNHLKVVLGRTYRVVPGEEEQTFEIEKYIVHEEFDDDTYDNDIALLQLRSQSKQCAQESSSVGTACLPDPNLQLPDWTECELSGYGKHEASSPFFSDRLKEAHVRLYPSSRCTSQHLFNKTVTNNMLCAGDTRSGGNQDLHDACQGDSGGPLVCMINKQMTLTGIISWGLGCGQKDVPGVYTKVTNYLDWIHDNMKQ
molecule,measurement,setting,value
Aprotinin,fibrin degradation by NIH3T3 cells,[1],completely inhibits fibrin degradation
COc1cc2c(cc1OC)-c1c/c(=N\c3c(C)cc(C)cc3C)n(C)c(=O)n1CC2 [trequinsin],intracellular cAMP levels in NIH3T3p75NTR cells,[2],only IBMX (P<0.0001) and rolipram (P<0.0001) increase
"COc1ccc2ncnc(NCc3ccc4c(c3)OCO4)c2c1 [4-{[3′,4′-(Methylenedioxy)benzyl]amino}-6-methoxyquinazoline]",intracellular cAMP levels in NIH3T3p75NTR cells,[2],only IBMX (P<0.0001) and rolipram (P<0.0001) increase
"CCCC(=O)Nc1ncnc2c1ncn2[C@@H]1O[C@@H]2COP(=O)(O)O[C@H]2[C@H]1OC(=O)CCC [db-cAMP, dibutyryl-cAMP]",fibrinolysis in NIH3T3p75NTR cells,[3],induces fibrinolysis; also recorded: overcomes the inhibitory effect of p75NTR
"COCc1nc2c([nH]1)c(=O)n(C)c(=O)n2CC(C)C [8-Methoxymethyl-IBMX, 8-methoxymethyl-3-isobutyl-1-methylxanthine]",intracellular cAMP levels in NIH3T3p75NTR cells,[2],only IBMX (P<0.0001) and rolipram (P<0.0001) increase
"CCCCCC[C@@H]([C@@H](C)O)n1cnc2c(N)ncnc21 (racemic) [EHNA, erythro-9-(2-Hydroxy-3-nonyl)adenine]",intracellular cAMP levels in NIH3T3p75NTR cells,[2],only IBMX (P<0.0001) and rolipram (P<0.0001) increase
Cl.Cl.N=C(N)c1ccc(C=C2CCCCC(=Cc3ccc(C(=N)N)cc3)C2=O)cc1 [tPASTOP],proteolytic activity (in situ zymography),[4],blocks proteolytic activity
pertussis toxin [PTX],intracellular cAMP levels in NIH3T3p75NTR cells,[2],does not rescue the p75NTR-mediated down-regulation of cAMP; also recorded: only IBMX (P<0.0001) and rolipram (P<0.0001) increase
CCCCCCOC(=O)[C@]1(O)C[C@@H]2O[C@@]1(C)n1c3ccccc3c3c4c(c5c6ccccc6n2c5c31)C(=O)NC4 [KT5720],tPA activity in NIH3T3 cells,[5],decrease of tPA activity; also recorded: decreases tPA activity
same,tPA activity in NIH3T3p75NTR cells,[6],decrease of tPA activity
same,tPA mRNA in NIH3T3 cells,[7],decreases tPA transcript; also recorded: decreases tPA RNA
NGF: nerve growth factor,tPA activity in SCs,[8],do not affect activity of tPA; also recorded: has no effect on tPA
same,"intracellular cAMP levels in NIH3T3p75NTR cells, neurotrophins or their inhibition","[2]; 100 ng/ml NGF, 50 ng/ml BDNF, 750 ng/ml FcTrkB, 1.35 ug/ml Fcp75NTR, 1 h",does not affect the p75NTR-mediated suppression of cAMP
B1,FRET emission ratio change of pm-AKAR2.2 in response to forskolin (membrane-associated PKA activity),[9],"NIH3T3p75NTR cells show an attenuated response, revealing reduced PKA activity at the plasma membrane"
B2,tPA activity in SCs,[8],do not affect activity of tPA; also recorded: has no effect on tPA
